According to patent US11006631B2, “Substituted pyrimidinyloxy pyridine derivatives as herbicides” (FMC Corporation, priority 2015, dated 2021):

How the values were obtained:
Assay type in all cases: in vivo
corn (Zea mays) = assay: Test A postemergence, corn; details: 0 to 100 scale
Procedure, shortened: (§1)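 Plants are sown in a loam soil and sand blend, then treated with formulated compound either preemergence by directed soil spray or postemergence at one- to two-leaf stage. After approximately 10 days, injury is judged visually against untreated controls using a 0 to 100 control scale.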

kochia (Kochia scoparia) [1] = assay: Test A postemergence, kochia; details: 0 to 100 scale
Procedure, shortened: as §1

[2] = system: ragweed (common ragweed, Ambrosia elatior); assay: Test A postemergence, ragweed; details: 0 to 100 scale
Procedure, shortened: as §1

[3] = system: nutsedge, yellow (yellow nutsedge, Cyperus esculentus); assay: Test C postemergence, nutsedge, yellow
Text: (§2) Seeds of plant species selected from blackgrass (Alopecurus myosuroides), ryegrass, Italian (Italian ryegrass, Lolium multiflorum), wheat (winter wheat, Triticum aestivum), galium (catchweed bedstraw, Galium aparine), corn (Zea mays), crabgrass, large (large crabgrass, Digitaria sanguinalis), foxtail, giant (giant foxtail, Setaria faberii), lambsquarters (Chenopodium album), morningglory (Ipomoea coccinea), nutsedge, yellow (yellow nutsedge, Cyperus esculentus), pigweed (Amaranthus retroflexus), johnsongrass (Sorghum halepense), ragweed (common ragweed, Ambrosia elatior), soybean (Glycine max), barnyardgrass (Echinochloa crus-galli), oilseed rape (Brassica napus), waterhemp (common waterhemp, Amaranthus rudis), chickweed (common chickweed, Stellaria media), oat, wild (wild oat, Avena fatua), kochia (Kochia scoparia), and velvetleaf (Abutilon theophrasti) were planted in pots containing Redi-Earth® planting medium (Scotts Company, 14111 Scottslawn Road, Marysville, Ohio 43041) comprising spaghnum peat moss, vermiculite, wetting agent and starter nutrients and treated with postemergence applications of a test chemical formulated in a non-phytotoxic solvent mixture which included a surfactant. Plants ranged in height from 2 to 18 cm (1- to 4-leaf stage) for postemergence treatments. Treated plants and controls were maintained in a greenhouse for 13 to 15 days, after which time all species were compared to controls and visually evaluated. Plant response ratings, summarized in Table C, are based on a scale of 0 to 100 where 0 is no effect and 100 is complete control. A dash (-) response means no test result.

[4] = system: crabgrass, large (large crabgrass, Digitaria sanguinalis); assay: Test C postemergence, crabgrass, large
Text: as §2

[5] = system: oat, wild (wild oat, Avena fatua); assay: Test C postemergence, oat, wild
Text: as §2

[6] = system: barnyardgrass (Echinochloa crus-galli); assay: Test C postemergence, barnyardgrass
Text: as §2

kochia (Kochia scoparia) [7] = assay: Test A preemergence, kochia; details: 0 to 100 scale
Procedure, shortened: as §1

[8] = system: barnyardgrass (Echinochloa crus-galli); assay: Test A preemergence, barnyardgrass; details: 0 to 100 scale
Procedure, shortened: as §1

kochia (Kochia scoparia) [9] = assay: Test C postemergence, kochia
Text: as §2

[10] = system: ryegrass, Italian (Italian ryegrass, Lolium multiflorum); assay: Test A postemergence, ryegrass, Italian; details: 0 to 100 scale
Procedure, shortened: as §1

[11] = system: pigweed (Amaranthus retroflexus); assay: Test A postemergence, pigweed; details: 0 to 100 scale
Procedure, shortened: as §1

[12] = system: wheat (Triticum aestivum); assay: Test A postemergence, wheat; details: 0 to 100 scale
Procedure, shortened: as §1

[13] = system: blackgrass (Alopecurus myosuroides); assay: Test A postemergence, blackgrass; details: 0 to 100 scale
Procedure, shortened: as §1

soybean (Glycine max) = assay: Test C postemergence, soybean
Text: as §2

[14] = system: galium (catchweed bedstraw, Galium aparine); assay: Test C postemergence, galium
Text: as §2

[15] = system: blackgrass (Alopecurus myosuroides); assay: Test C postemergence, blackgrass
Text: as §2

[16] = system: foxtail, giant (giant foxtail, Setaria faberii); assay: Test A preemergence, foxtail, giant; details: 0 to 100 scale
Procedure, shortened: as §1

[17] = system: ryegrass, Italian (Italian ryegrass, Lolium multiflorum); assay: Test C postemergence, ryegrass, Italian
Text: as §2

## FC(F)c1cc(-c2ncccc2Oc2ncc(Cl)cn2)on1 [Compound 5, 5-chloro-2-[[2-[3-(difluoromethyl)-5-isoxazolyl]-3-pyridinyl]oxy]pyrimidine]
Corn (Zea mays); 31 g ai/ha
  Plant response rating, Corn: 0
Corn (Zea mays); 125 g ai/ha
  Plant response rating, Corn: 10
Kochia (Kochia scoparia) [1]; 31 g ai/ha
  Plant response rating, Kochia: 80
Kochia (Kochia scoparia) [1]; 125 g ai/ha
  Plant response rating, Kochia: 90
[2]; 31 g ai/ha
  Plant response rating, Ragweed: 20
[2]; 125 g ai/ha
  Plant response rating, Ragweed: 60
[3]; 16 g ai/ha
  Plant response rating, Nutsedge, Yellow: 0
[3]; 31 g ai/ha
  Plant response rating, Nutsedge, Yellow: 10
[3]; 62 g ai/ha
  Plant response rating, Nutsedge, Yellow: 5
[3]; 125 g ai/ha
  Plant response rating, Nutsedge, Yellow: 5
[4]; 16 g ai/ha
  Plant response rating, Crabgrass, Large: 10
[4]; 31 g ai/ha
  Plant response rating, Crabgrass, Large: 15
[4]; 62 g ai/ha
  Plant response rating, Crabgrass, Large: 15
[4]; 125 g ai/ha
  Plant response rating, Crabgrass, Large: 15
[5]; 16 g ai/ha
  Plant response rating, Oat, Wild: 0
[5]; 31 g ai/ha
  Plant response rating, Oat, Wild: 0
[5]; 62 g ai/ha
  Plant response rating, Oat, Wild: 0
[5]; 125 g ai/ha
  Plant response rating, Oat, Wild: 5
[6]; 16 g ai/ha
  Plant response rating, Barnyardgrass: 0
[6]; 31 g ai/ha
  Plant response rating, Barnyardgrass: 0
[6]; 62 g ai/ha
  Plant response rating, Barnyardgrass: 5
[6]; 125 g ai/ha
  Plant response rating, Barnyardgrass: 10
Kochia (Kochia scoparia) [7]; 31 g ai/ha
  Plant response rating, Kochia: 10
Kochia (Kochia scoparia) [7]; 125 g ai/ha
  Plant response rating, Kochia: 80
[8]; 31 g ai/ha
  Plant response rating, Barnyardgrass: 0
[8]; 125 g ai/ha
  Plant response rating, Barnyardgrass: 20
Kochia (Kochia scoparia) [9]; 16 g ai/ha
  Plant response rating, Kochia: 90
Kochia (Kochia scoparia) [9]; 31 g ai/ha
  Plant response rating, Kochia: 90
Kochia (Kochia scoparia) [9]; 62 g ai/ha
  Plant response rating, Kochia: 90
Kochia (Kochia scoparia) [9]; 125 g ai/ha
  Plant response rating, Kochia: 90
[10]; 31 g ai/ha
  Plant response rating, Ryegrass, Italian: 0
[10]; 125 g ai/ha
  Plant response rating, Ryegrass, Italian: 0
[11]; 31 g ai/ha
  Plant response rating, Pigweed: 80
[11]; 125 g ai/ha
  Plant response rating, Pigweed: 90
[12]; 31 g ai/ha
  Plant response rating, Wheat: 0
[12]; 125 g ai/ha
  Plant response rating, Wheat: 10
[13]; 31 g ai/ha
  Plant response rating, Blackgrass: 0
[13]; 125 g ai/ha
  Plant response rating, Blackgrass: 20
Soybean (Glycine max); 16 g ai/ha
  Plant response rating, Soybean: 60
Soybean (Glycine max); 31 g ai/ha
  Plant response rating, Soybean: 70
Soybean (Glycine max); 62 g ai/ha
  Plant response rating, Soybean: 40
Soybean (Glycine max); 125 g ai/ha
  Plant response rating, Soybean: 90
[14]; 16 g ai/ha
  Plant response rating, Galium: 35
[14]; 31 g ai/ha
  Plant response rating, Galium: 75
[14]; 62 g ai/ha
  Plant response rating, Galium: 80
[14]; 125 g ai/ha
  Plant response rating, Galium: 90
[15]; 16 g ai/ha
  Plant response rating, Blackgrass: 0
[15]; 31 g ai/ha
  Plant response rating, Blackgrass: 0
[15]; 62 g ai/ha
  Plant response rating, Blackgrass: 0
[15]; 125 g ai/ha
  Plant response rating, Blackgrass: 5
[16]; 31 g ai/ha
  Plant response rating, Foxtail, Giant: 10
[16]; 125 g ai/ha
  Plant response rating, Foxtail, Giant: 80
[17]; 16 g ai/ha
  Plant response rating, Ryegrass, Italian: 0
[17]; 31 g ai/ha
  Plant response rating, Ryegrass, Italian: 5
[17]; 62 g ai/ha
  Plant response rating, Ryegrass, Italian: 0
[17]; 125 g ai/ha
  Plant response rating, Ryegrass, Italian: 5
